According to US20060247439A1, “Mchir antagonists” (AstraZeneca AB, priority 2002, published 2006):

The compounds below were run against T1, human Melanin concentrating hormone receptor 1 (MCH1r) (Homo sapiens, UniProt Q99705) (assay: MCH1 Receptor Radioligand Binding). Conditions: membranes from HEK293 cells stably expressing human MCH1r; radioligand 125I-MCH.
T1 construct: expressed in transfected cells; membranes)
Protocol: MCH1 Receptor Radioligand Binding.
Assays were performed on membranes prepared from HEK293 cells stably expressing the human Melanin concentrating hormone receptor 1 (MCH1r) (Lembo et al. Nature Cell Biol 1 267-271). Assays were performed in a 96-well plate format in a final reaction volume of 200 μl per well. Each well contained 6,1 μg of membrane proteins diluted in binding buffer (50 mM Tris, 3 mM MgCl2, 0.05% bovine serum albumin (BSA) and the radioligand ^125I-MCH (IM344 Amersham) was added to give 10 000 cpm (counts per Minute) per well Each well contained 2 μl of the appropriate concentration of competitive antagonist prepared in DMSO and left to stand at room temperature for 60 minutes. Non-specific binding was determined as that remaining following incubation with […] MCH (Melanin concentrating hormone, H-1482 Bachem). The reaction was terminated by transfer of the reaction to GF/A filters using a Micro96 Harvester (Skatron Instruments, Norway). Filters were washed with assay buffer; Radioligand retained on the filters was quantified using a1450 Microbeta TRILUX (Wallac, Finland).
Non-specific binding was subtracted from all values determined. Maximum binding was that determined in the absence of any competitor following subtraction of the value determined for non-specific binding. Binding of compounds at various concentrations was plotted according to the equation y=A+(B−A)/1+((C/x)ˆD))) and IC50 estimated where […]
A is the bottom plateau of the curve i.e. the final minimum y value
B is the top of the plateau of the curve i.e. the final maximum y value
C is the x value at the middle of the curve. This represents the log EC50 value when A+B=100 […]
x is the original known x values. y is the original known y values.

T1 sequence (Q99705 whole entry): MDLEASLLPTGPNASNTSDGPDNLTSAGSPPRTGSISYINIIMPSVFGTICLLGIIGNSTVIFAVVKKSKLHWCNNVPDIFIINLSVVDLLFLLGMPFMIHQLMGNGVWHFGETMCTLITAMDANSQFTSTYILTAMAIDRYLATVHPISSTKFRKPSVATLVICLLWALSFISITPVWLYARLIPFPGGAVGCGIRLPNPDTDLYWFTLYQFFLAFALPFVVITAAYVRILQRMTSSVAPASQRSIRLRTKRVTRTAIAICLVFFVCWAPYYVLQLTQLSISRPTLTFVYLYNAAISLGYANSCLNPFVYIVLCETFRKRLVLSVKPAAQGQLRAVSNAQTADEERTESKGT

| IC50 | Structure (SMILES) |
| --- | --- |
| 400 nM | Clc1ccc(CNC2CCC(Nc3ccc4ccccc4n3)CC2)cc1Cl (mixture of isomers) [Example 29, N-[(3,4-Dichlorophenyl)methyl]-N′-(2-quinolinyl)-1,4-cyclohexanediamine] |
| 560 nM | COc1ccc2nc(NC3CCCC(NCc4cc5ccccc5o4)C3)cc(C)c2c1 (mixture of isomers) [Example 53, N-(1-benzofuran-2-ylmethyl)-N′-(6-methoxy-4-methylquinolin-2-yl)cyclohexane-1,3-diamine] |
| 10 nM | COc1ccc2nc(NCCCNCc3ccsc3)cc(C)c2c1 [Example 2, N-(6-Methoxy-4-methyl-2-quinolinyl)-N′-(3-thienylmethyl)-1,3-propanediamine] |
